Tests used:
[1] = Inhibition of Aspergillus oryzae alpha-amylase in presence of 1% starch incubated for 10 mins
[2] = In vitro antidiabetic activity measured by appearance of glucose in external solution using dialysis bag and D-glucose incubated for 1 to 27 hrs by 3,5-dinitrosalicylic acid based glucose diffusion inhibition assay; type: functional; details: time 1-27 hrs

Structure (SMILES) | IC50 [1] [µg/mL] | Activity [2] [µg/mL]
O=C1c2ccccc2-c2c1c(-c1ccccc1)nn2-c1nc2ccc(F)cc2s1 | 98.42 | 2.63
Cc1cccc2sc(-n3nc(-c4ccc(Br)cc4)c4c3-c3ccccc3C4=O)nc12 | 132.41 | 17.2
O=C1c2ccccc2-c2c1c(-c1cccc(Cl)c1)nn2-c1nc2ccc(F)cc2s1 | 190.98 | 18
O=C1c2ccccc2-c2c1c(-c1ccc(Br)cc1)nn2-c1nc2ccc(F)cc2s1 | 196.85 | 12.7
COc1ccc(-c2nn(-c3nc4c(C)cccc4s3)c3c2C(=O)c2ccccc2-3)cc1 | 161.92 | 12.7
COc1cccc(-c2nn(-c3nc4ccc(F)cc4s3)c3c2C(=O)c2ccccc2-3)c1 | 162.5 | 10.9
Cc1ccc(-c2nn(-c3nc4ccc(F)cc4s3)c3c2C(=O)c2ccccc2-3)cc1 | 135.14 | 6.8
COc1cccc(-c2nn(-c3nc4c(C)cccc4s3)c3c2C(=O)c2ccccc2-3)c1 | 200.95 | 10.8
O=C1c2ccccc2-c2c1c(-c1ccc(F)cc1)nn2-c1nc2ccc(F)cc2s1 | 144.106 | 11.5
COc1ccc(-c2nn(-c3nc4ccc(F)cc4s3)c3c2C(=O)c2ccccc2-3)cc1 | 104.74 | 4.26
Cc1cccc(-c2nn(-c3nc4ccc(F)cc4s3)c3c2C(=O)c2ccccc2-3)c1 | 95.41 | 13.5
C[C@H]1O[C@H](O[C@H]2[C@H](O)[C@@H](O)[C@@H](O[C@H]3[C@H](O)[C@@H](O)C(O)O[C@@H]3CO)O[C@@H]2CO)[C@H](O)[C@@H](O)[C@@H]1N[C@H]1C=C(CO)[C@@H](O)[C@H](O)[C@H]1O (some centres not stated) [ACARBOSE] | 103.6 | 2.76
O=C1c2ccccc2-c2c1c(-c1ccc(Cl)cc1)nn2-c1nc2ccc(F)cc2s1 | 189.69 | 17.6
O=C1c2ccccc2-c2c1c(-c1cccc(Br)c1)nn2-c1nc2ccc(F)cc2s1 | 192.95 | 11.9

More lines, main results first:

IC50 [1] [µg/mL] | Structure (SMILES) | Activity [2] [µg/mL]
198.33 | Cc1cccc(-c2nn(-c3nc4c(C)cccc4s3)c3c2C(=O)c2ccccc2-3)c1 | 8.25
183.43 | Cc1cccc2sc(-n3nc(-c4cccc(Br)c4)c4c3-c3ccccc3C4=O)nc12 | 6.29
92.99 | Cc1cccc2sc(-n3nc(-c4ccc(Cl)cc4)c4c3-c3ccccc3C4=O)nc12 | 9.5
165.59 | Cc1ccc(-c2nn(-c3nc4c(C)cccc4s3)c3c2C(=O)c2ccccc2-3)cc1 | 7.25
159.95 | Cc1cccc2sc(-n3nc(-c4ccc(F)cc4)c4c3-c3ccccc3C4=O)nc12 | 13.2
171.2 | Cc1cccc2sc(-n3nc(-c4cccc(Cl)c4)c4c3-c3ccccc3C4=O)nc12 | 2.25
167.48 | Cc1cccc2sc(-n3nc(-c4ccccc4)c4c3-c3ccccc3C4=O)nc12 | 6.68

Source: ChEMBL document CHEMBL5385936, “Design, synthesis, α-amylase and glucose diffusion inhibition, and molecular docking studies of new indenopyrazolones bearing benzothiazole derivatives” (Bioorg Med Chem Lett, 2024)
